Test results published in patent publication US9481688B2, “(Thieno[2,3-b][1,5]benzoxazepin-4-yl)piperazin-1-yl compounds as dual activity H1 inverse agonists/5-HT2A antagonists” (Eli Lilly and Company, priority 2011, dated 2016).

Tests used:
[1] = molecular target: human recombinant H1 receptor (Homo sapiens (Human), UniProt P35367); assay: H1 competition binding assay ([3H]-Pyrilamine, SPA)
Procedure: [^3H]-Pyrilamine binding experiments are carried out in SPA (scintillation proximity assay) 96-well format. Membranes used in this assay are prepared from HEK-293 cells stably expressing recombinant H1 receptor (human). The incubation is initiated by the addition of a mixture of WGA PVT SPA beads (1 mg/well, Perkin Elmer (MA, USA) RPNQ0001) and 3 μg membranes to assay buffer (67 mM Tris; pH 7.6) containing 3.5 nM [^3H]-Pyrilamine and varying concentrations of the test compound (10 point concentration response curves). Non-specific binding is determined in the presence of 10 μM Triprolidine. Samples are incubated for 4 hr. at room temperature (22° C.) and then read in a Microbeta Trilux.
Curves are evaluated using a 4-parameter logistic nonlinear equation to obtain the concentration of competitor causing 50% inhibition of radioligand binding (IC50). Equilibrium dissociation constants (Ki) are calculated according to the equation Ki=IC50/(1+L/Kd), where L equals the concentration of radioligand used in the experiment and Kd equals the equilibrium dissociation constant of the radioligand for the receptor, determined from standard saturation analysis or homologous competition experiments. Reported values for Ki, where n values are indicated, are shown as geometric mean±the standard error of the mean (SEM), with the number of replicate determinations indicated by n. […]

[2] = molecular target: recombinant 5-HT2A receptor (human) (Homo sapiens (Human), UniProt P28223); assay: 5-HT2A competition binding assay ([3H]-Ketanserin, SPA)
Procedure: [^3H]-Ketanserin binding experiments are carried out in SPA 96-well format. Membranes used in this assay are prepared from AV-12 cells stably expressing recombinant 5-HT2A receptor (human). The incubation is initiated by the addition of a mixture of WGA YSi SPA beads (1 mg/well, Perkin Elmer (MA, USA), RPNQ0011) and 2 μg membranes to assay buffer (67 mM Tris, 0.5 mM EDTA; pH 7.6) containing 3.1 nM [^3H]-Ketanserin and varying concentrations of the test compound (10 point concentration response curves). Non-specific binding is determined in the presence of 20 μM 1-(1-Naphthyl) piperazine. Samples are incubated for 4 hr. at room temperature (22° C.) and then read in a Microbeta Trilux.

[3] = molecular target: recombinant 5-HT2C receptor (human) (Homo sapiens (Human), UniProt P28335); assay: 5-HT2C competition binding assay ([125I]-DOI, SPA)
Procedure: [^125I]-(±)DOI binding experiments are carried out in SPA 96-well format. Membranes used in this assay are prepared from AV-12 cells stably expressing recombinant 5-HT2C receptor (human). The incubation is initiated by the addition of a mixture of WGA PVT SPA beads (0.5 mg/well, Perkin Elmer (MA, USA), RPNQ0001) and 2.5 μg membranes to assay buffer (50 mM Tris-HCl, 10 mM MgCl2, 0.5 mM EDTA, 10 μM pargyline, 0.1% ascorbic acid, pH7.4) containing 0.2 nM [[^125I]-(±)DOI and varying concentrations of the test compound (10 point concentration response curves). Non-specific binding is determined in the presence of 20 μM 1-(1-Naphthyl) piperazine. Samples are incubated for 4 hr. at room temperature (22° C.) and then read in a Microbeta Trilux.
Curves are evaluated using a 4-parameter logistic nonlinear equation to obtain the concentration of competitor causing 50% inhibition of radioligand binding (IC50). Equilibrium dissociation constants (Ki) are calculated according to the equation Ki=IC50/(1+L/Kd), where L equals the concentration of radioligand used in the experiment and Kd equals the equilibrium dissociation constant of the radioligand for the receptor, determined from standard saturation analysis or homologous competition experiments. […]

Dopamine D2 = Dopamine D2 (Homo sapiens (Human), UniProt P14416); assay: Dopamine D2 binding
Description: (§1) Further, the compounds of the invention may be tested in binding assays and functional activity assays by well known methods for other physiologically important receptors such as, but not limited to, the hERG channel, other serotonin receptors (specifically 5-HT1B, 5-HT1D, receptors, lack of agonist activity at 5-HT2B receptors, 5-HT2C, 5-HT5, 5-HT6, and 5-HT7 receptors), dopaminergic receptors (specifically D1, D2, and D3), GABAA receptors, adrenergic receptors and monoamine transporters.

Dopamine D3 = Dopamine D3 (Homo sapiens (Human), UniProt P35462); assay: Dopamine D3 binding
Description: as §1

[4] = Plasma clearance in rat (intravenous); format: in vivo; conditions: male, Sprague Dawley, rat, plasma, iv, 1 mg/kg, read-out: Clearance
Procedure: Male Sprague Dawley rats (body weight range 250-320 g) with indwelling femoral arterial cannulae are obtained from Charles River, Wilmington, Mass. 01887, USA. Test compound is administered intravenously in solution (1 mL/kg) in 20% Captisol® in 22.5 mM phosphate buffer, pH 2, at a final drug concentration of 1.0 mg/mL (free base equivalents). Blood samples are obtained using the indwelling cannula over 24 hr. Samples of plasma are obtained by centrifugation and stored frozen (−20° C.), or on dry ice, prior to analysis.
Frozen plasma samples are thawed to room temperature for bioanalysis of concentrations of test compound. A related internal standard compound in acetonitrile/methanol (1:1, v/v) is added to all samples of plasma (1:1, v/v). The samples are centrifuged to remove precipitated protein prior to analysis. The supernatants are analysed by injection and rapid gradient elution on a Javelin Betasil C18 column (20×2.1 mm cartridge, Mobile phase A: Water/1 M NH4HCO3, 2000:10 v/v, Mobile Phase B: MeOH/1 M NH4HCO3, 2000:10 v/v). The eluted analytes are detected by LC-MS-MS analysis using a Sciex API 4000 triple quadrupole mass spectrometer. Concentrations of compound are determined from standards prepared and analysed under identical conditions. Clearance is calculated using non-compartmental analysis in Watson 7.4, Thermo Fisher Scientific, Inc.

Dopamine D3, sequence (P35462 whole entry): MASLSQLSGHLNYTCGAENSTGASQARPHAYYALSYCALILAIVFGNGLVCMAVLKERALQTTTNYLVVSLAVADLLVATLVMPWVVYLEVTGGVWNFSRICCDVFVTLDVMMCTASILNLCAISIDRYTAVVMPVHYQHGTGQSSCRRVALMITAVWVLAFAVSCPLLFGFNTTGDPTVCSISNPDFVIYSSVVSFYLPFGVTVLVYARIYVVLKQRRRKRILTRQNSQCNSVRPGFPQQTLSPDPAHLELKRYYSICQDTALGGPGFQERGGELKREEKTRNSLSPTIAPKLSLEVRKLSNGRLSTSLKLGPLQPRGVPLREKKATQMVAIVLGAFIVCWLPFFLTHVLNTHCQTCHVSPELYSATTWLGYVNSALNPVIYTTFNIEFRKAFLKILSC
recombinant 5-HT2C receptor (human), sequence (P28335 whole entry, looked up): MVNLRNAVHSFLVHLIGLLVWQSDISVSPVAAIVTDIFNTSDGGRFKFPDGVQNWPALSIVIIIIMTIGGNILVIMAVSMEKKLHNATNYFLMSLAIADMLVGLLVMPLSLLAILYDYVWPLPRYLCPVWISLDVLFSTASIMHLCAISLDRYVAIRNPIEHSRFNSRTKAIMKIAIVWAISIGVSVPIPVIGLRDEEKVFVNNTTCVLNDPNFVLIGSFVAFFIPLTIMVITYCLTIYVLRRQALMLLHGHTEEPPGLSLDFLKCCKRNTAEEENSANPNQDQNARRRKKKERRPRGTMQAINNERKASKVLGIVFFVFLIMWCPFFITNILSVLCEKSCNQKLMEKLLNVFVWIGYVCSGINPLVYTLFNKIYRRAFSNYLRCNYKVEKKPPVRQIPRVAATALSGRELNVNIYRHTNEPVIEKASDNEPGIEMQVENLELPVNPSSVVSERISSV
Dopamine D2, sequence (P14416 whole entry): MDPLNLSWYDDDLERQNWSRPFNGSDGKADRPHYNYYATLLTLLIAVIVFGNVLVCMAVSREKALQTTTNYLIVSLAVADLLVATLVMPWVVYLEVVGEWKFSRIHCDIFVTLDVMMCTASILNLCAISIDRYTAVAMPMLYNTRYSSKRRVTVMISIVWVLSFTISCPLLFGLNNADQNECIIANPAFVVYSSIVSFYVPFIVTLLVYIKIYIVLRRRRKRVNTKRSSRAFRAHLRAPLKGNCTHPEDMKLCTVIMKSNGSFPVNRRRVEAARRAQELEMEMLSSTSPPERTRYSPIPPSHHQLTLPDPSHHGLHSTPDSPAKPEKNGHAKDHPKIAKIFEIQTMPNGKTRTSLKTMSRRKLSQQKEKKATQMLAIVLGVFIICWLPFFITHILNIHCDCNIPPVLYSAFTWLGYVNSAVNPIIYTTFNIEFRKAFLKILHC
human recombinant H1 receptor, sequence (P35367 whole entry): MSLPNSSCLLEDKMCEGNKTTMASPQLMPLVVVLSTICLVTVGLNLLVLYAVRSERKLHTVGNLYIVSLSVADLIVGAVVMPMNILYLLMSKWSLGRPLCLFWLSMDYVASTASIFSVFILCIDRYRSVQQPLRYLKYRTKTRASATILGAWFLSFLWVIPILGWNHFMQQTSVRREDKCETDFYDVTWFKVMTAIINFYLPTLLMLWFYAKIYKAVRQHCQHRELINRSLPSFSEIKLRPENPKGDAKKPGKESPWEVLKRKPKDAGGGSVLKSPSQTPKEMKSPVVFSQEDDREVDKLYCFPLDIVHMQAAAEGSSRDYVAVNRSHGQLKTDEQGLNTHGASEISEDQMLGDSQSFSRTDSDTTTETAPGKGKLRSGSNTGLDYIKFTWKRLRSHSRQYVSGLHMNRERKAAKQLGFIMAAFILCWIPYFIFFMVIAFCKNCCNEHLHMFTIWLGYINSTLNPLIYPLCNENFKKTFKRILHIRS

Cc1ccc2c(c1)Oc1sc(Cl)cc1C(N1CCN(CC(C)(C)C(=O)O)CC1)=N2 [Example 1, 3-[4-(2-Chloro-8-methyl-thieno[2,3-b][1,5]benzoxazepin-4-yl)piperazin-1-yl]-2,2-dimethyl-propanoic acid]
Ki [1]: 20.6 nM
Ki [2]: 3.37 nM
Ki [3]: 137 nM
Ki (Dopamine D2): 2780 nM
Ki (Dopamine D3): > 5510 nM
clearance [4]: 14.1 mL/min/kg
